Test [1] addresses gelatinase A catalytic domain (MMP02). As to the kind of experiment: Thiopeptolide assay, gelatinase A catalytic domain (GCD, MMP02). It is filed as biochemical. The settings on record: Tables 2, 3, 5, 7; read-out: IC50 MMP-2CD. As for the experimental part:
(§1) Hydrolysis of the thiopeptolide substrate Ac-Pro-Leu-Gly-thioester-Leu-Leu-Gly-OEt (Bachem) is used as the primary screen to determine IC50 values for MMP inhibitors. A 100 μL reaction contains 1 mM 5,5'-dithiobis(2-nitrobenzoic acid) (DTNB), 100 μM substrate, 0.1% Brij, enzyme, and inhibitor in the appropriate reaction buffer. Activated full-length enzymes are assayed at 5 nM, Stromelysin Catalytic Domain (SCD) at 10 nM, and Gelatinase A Catalytic Domain (GaCD) at 1 nM. Inhibitors are screened from 100 μM to 1 nM. Full-length enzymes are assayed in 50 mM HEPES, 10 mM CaCl2, pH 7.0; SCD in 50 mM MES, 10 mM CaCl2, pH 6.0; and GaCD in 50 mM MOPS, 10 mM CaCl2, 10 μM ZnCl2, pH 7.0.

The target in another test is T1, MMP07 (Homo sapiens, UniProt P09237).
T1 construct: made in house; host or cells: Escherichia coli
T1 sequence (P09237 95-267): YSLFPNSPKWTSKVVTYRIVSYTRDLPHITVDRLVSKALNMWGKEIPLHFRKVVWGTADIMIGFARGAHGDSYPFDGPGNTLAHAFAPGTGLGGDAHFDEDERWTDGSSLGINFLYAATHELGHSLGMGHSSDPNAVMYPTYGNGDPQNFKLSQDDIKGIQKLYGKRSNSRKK
As to the kind of experiment: Thiopeptolide assay, MMP07. It is filed as biochemical. The settings on record: Tables 2, 3, 5, 7; read-out: IC50 MMP-7. As for the experimental part: (§2) MMP01, MMP07, MMP09, and MMP13 activity was assayed in a method similar to MMP02 and MMP03 (SCD and GCD). MMP01 and MMP09 can be obtained from Washington University School of Medicine, St. Louis, Mo. MMP07 can be obtained in accordance with the known procedure set forth by Ye QZ, Johnson L. L., and Baragi V., "Gene Syntheses and Expression in E. coli for PUMP, a Human Matrix Metalloproteinase" Biochem. and Biophys. […] MMP 13 can be obtained in accordance with the known procedure set forth by Freije J. M. P., et al., "Molecular Cloning and Expression of Collegenase-3, a Novel Human Matrix Metalloproteinase Produced by Breast Carcinomas" J. Bio.
as §1

In the next test the test system is MMP-13CD. Description: Thiopeptolide assay, MMP-13CD. It is filed as biochemical, human. The settings on record: Tables 2, 3, 5, 7. As to the method:
IC50 values were determined using a thiopeptolide substrate, Ac-Pro-Leu-Gly-thioester-Leu-Leu-Gly-OEt (Ye Q.-Z., Johnson L. L., Hupe D. J., and Baragi V., "Purification and Characterization of the Human Stromelysin Catalytic Domain Expressed in Escherichia coli," Biochemistry, 1992;31:11231-11235). MMP01, MMP07, MMP09, and MMP13 activity was assayed in a method similar to MMP02 and MMP03 (SCD and GCD). MMP01 and MMP09 can be obtained from Washington University School of Medicine, St. Louis, Mo. MMP07 can be obtained in accordance with the known procedure set forth by Ye QZ, Johnson L. L., and Baragi V., "Gene Syntheses and Expression in E. coli for PUMP, a Human Matrix Metalloproteinase" Biochem. and Biophys. Res. Comm., 1992; 186:143-149. MMP 13 can be obtained in accordance with the known procedure set forth by Freije J. M. P., et al., "Molecular Cloning and Expression of Collegenase-3, a Novel Human Matrix Metalloproteinase Produced by Breast Carcinomas" J. Bio. Chem., 1994;269:16766-6773.
as §1, with “7.0. The change in absorbance at 405 riM is monitored on a ThermoMax microplate reader at room temperature continuously for 20 minutes.” for “7.0.”

In another test the target is T2, MMP01 (Homo sapiens, UniProt P03956).
T2 construct: purchased Washington University School of Medicine, St. Louis, Mo
T2 sequence (P03956 100-469): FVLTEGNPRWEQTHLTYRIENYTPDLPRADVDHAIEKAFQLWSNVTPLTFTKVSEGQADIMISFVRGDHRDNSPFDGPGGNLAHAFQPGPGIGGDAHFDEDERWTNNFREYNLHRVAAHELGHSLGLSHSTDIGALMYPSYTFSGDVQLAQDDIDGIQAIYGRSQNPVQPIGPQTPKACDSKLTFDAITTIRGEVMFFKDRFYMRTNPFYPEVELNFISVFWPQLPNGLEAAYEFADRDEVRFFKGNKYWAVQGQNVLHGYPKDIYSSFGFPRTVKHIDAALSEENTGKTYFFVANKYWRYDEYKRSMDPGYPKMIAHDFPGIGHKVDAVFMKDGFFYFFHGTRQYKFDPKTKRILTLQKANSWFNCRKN
As to the kind of experiment: Thiopeptolide assay, MMP01. The settings on record: Tables 2, 3, 5, 7; read-out: IC50 MMP1. It is filed as biochemical. As to the method: as §2, §1

Test [2] concerns the target T3, stromelysin-1 catalytic domain (MMP03) (Homo sapiens, UniProt P08254).
T3 construct: SCD (stromelysin-1 catalytic domain); made in house; host or cells: Escherichia coli
Description: Thiopeptolide assay, stromelysin-1 catalytic domain (SCD, MMP03). The format is biochemical. Conditions: Tables 2, 3, 5, 7; read-out: IC50 MMP 3CD. As for the experimental part:
as §1

In general, IC50 refers to the concentration that inhibits the measured activity by half.

Some results are limits rather than exact numbers.

T3 sequence (P08254 100-272 limits assumed): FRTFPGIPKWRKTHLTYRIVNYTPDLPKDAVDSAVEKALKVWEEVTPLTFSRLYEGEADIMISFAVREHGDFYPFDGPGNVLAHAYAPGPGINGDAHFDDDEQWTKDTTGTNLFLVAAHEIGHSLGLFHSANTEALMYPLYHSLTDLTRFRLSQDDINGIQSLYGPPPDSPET

For the compound `O=C(O)C(CCCCNC(=S)NC12CC3CC(CC(C3)C1)C2)NS(=O)(=O)c1ccc2oc3ccccc3c2c1` (stereo not shown) [Example B6, 6-(3-Adamantan-1-yl-thioureido)-2-(dibenzofuran-2-sulfonylamino)-hexanoic acid], the IC50 in test [1] was 3.1 µM; on MMP07 it was more than 100 µM; in the test on MMP-13CD it was 4.4 µM; on MMP01, more than 100 µM; in test [2], 9 µM.

With `C=CCNC(=O)NCCCCC(NS(=O)(=O)c1ccc2oc3ccccc3c2c1)C(=O)O` (stereo not shown) [Example B8, 6-(3-Allyl-ureido)-2-(dibenzofuran-2-sulfonylamino)-hexanoic acid], the IC50 was 1.1 µM in test [1]; more than 100 µM at MMP07; 7.6 µM in the test with MMP-13CD; more than 100 µM on MMP01; 3 µM in test [2].

As for `O=C(NCCCCC(NS(=O)(=O)c1ccc2oc3ccccc3c2c1)C(=O)O)NCc1ccccc1` (stereo not shown) [Example B9, 6-(3-Benzyl-ureido)-2-(dibenzofuran-2-sulfonylamino)-hexanoic acid], the IC50 is 0.8 µM in test [1]; 70.2 µM at MMP07; 4 µM in the test on MMP-13CD; more than 100 µM at MMP01; 1.4 µM in test [2].

For the compound `O=C(NCCCCC(NS(=O)(=O)c1ccc2oc3ccccc3c2c1)C(=O)O)Nc1ccccc1` (stereo not shown) [Example B10, 2-(Dibenzofuran-2-sulfonylamino)-6-(3-phenyl-ureido)-hexanoic acid], the IC50 in test [1] was 0.3 µM; on MMP07 it was more than 100 µM; in the test with MMP-13CD it was 8 µM; on MMP01, more than 100 µM; in test [2], 2.4 µM.

With `O=C(O)C(CCCCNS(=O)(=O)c1ccc(F)cc1)NS(=O)(=O)c1ccc2oc3ccccc3c2c1` (stereo not shown) [Example D1, 2-(Dibenzofuran-2-sulfonylamino)-6-(4-fluoro-benzenesulfonylamino)-hexanoicacid], the IC50 is 1.7 µM in test [1]; more than 100 µM on MMP07; 2.4 µM with MMP-13CD; more than 100 µM at MMP01; 2.9 µM in test [2].

As to `COc1ccc(S(=O)(=O)NCCCCC(NS(=O)(=O)c2ccc3oc4ccccc4c3c2)C(=O)O)cc1` (stereo not shown) [Example D2, 2-(Dibenzofuran-2-sulfonylamino)-6-(4-methoxy-benzenesulfonylamino)-hexanoic acid], the IC50 is 1.8 µM in test [1]; more than 100 µM on MMP07; 7.1 µM in the test on MMP-13CD; more than 100 µM on MMP01; 4.6 µM in test [2].

Regarding `O=C(O)C(CCCCNS(=O)(=O)c1ccc(Br)cc1)NS(=O)(=O)c1ccc2oc3ccccc3c2c1` (stereo not shown) [Example D3, 6-(4-Bromo-benzenesulfonylamino)-2-(dibenzofuran-2-sulfonylamino)-hexanoic acid], the IC50 was 2.9 µM in test [1]; more than 100 µM at MMP07; 11.8 µM in the test with MMP-13CD; more than 100 µM on MMP01; 8.6 µM in test [2].

`CC(=O)Nc1ccc(S(=O)(=O)NCCCCC(NS(=O)(=O)c2ccc3oc4ccccc4c3c2)C(=O)O)cc1` (stereo not shown) [Example D5, 6-(4-Acetylamino-benzensulfonylamino)-2-(dibenzofuran-2-sulfonylamino)-hexanoic acid]: the IC50 in test [1] was 1.2 µM; on MMP07, more than 100 µM; in the test on MMP-13CD, 7.7 µM; on MMP01, more than 100 µM; in test [2] it was 8.6 µM.

For the compound `O=C(O)C(CCCCNS(=O)(=O)c1ccccc1)NS(=O)(=O)c1ccc2oc3ccccc3c2c1` (stereo not shown) [Example D6, 6-Benzenesulfonylamino-2-(dibenzofuran-2-sulfonylamino)-hexanoic acid], the IC50 was 1.4 µM in test [1]; 92.1 µM on MMP07; 3.3 µM in the test on MMP-13CD; more than 100 µM at MMP01; 2.5 µM in test [2].

On to `O=C(O)C(CCCCNS(=O)(=O)c1ccc2ccccc2c1)NS(=O)(=O)c1ccc2oc3ccccc3c2c1` (stereo not shown) [Example D8, 2-(Dibenzofuran-2-sulfonylamino)-6-(naphthalene-2-sulfonylamino)-hexanoic acid], for which the IC50 was 7 µM in test [1]; more than 100 µM on MMP07; 39 µM with MMP-13CD; more than 100 µM on MMP01; 19 µM in test [2].

As to `O=C(O)C(CCCCNS(=O)(=O)c1cccc2ccccc12)NS(=O)(=O)c1ccc2oc3ccccc3c2c1` (stereo not shown) [Example D9, 2-(Dibenzofuran-2-sulfonylamino)-6-(naphthalene-1-sulfonylamino)-hexanoic acid], the IC50 in test [1] was 4.3 µM; on MMP07, more than 100 µM; in the test on MMP-13CD, 11.7 µM; at MMP01, more than 100 µM; in test [2], 14.2 µM.

Take `O=C(O)C(CCCCNS(=O)(=O)C=Cc1ccccc1)NS(=O)(=O)c1ccc2oc3ccccc3c2c1` (stereo not shown) [Example D10, 2-(Dibenzofuran-2-sulfonylamino)-6-(2-phenyl-ethenesulfonylamino)-hexanoic acid]: the IC50 in test [1] is 2.5 µM; at MMP07 it was more than 100 µM; in the test on MMP-13CD, 11.1 µM; at MMP01, more than 100 µM; in test [2], 4.2 µM.

With `O=C(CCC(NS(=O)(=O)c1ccc2oc3ccccc3c2c1)C(=O)O)NCCc1ccncc1` (stereo not shown) [Example F1, 2-(Dibenzofuran-2-sulfonylamino)-4-(2-pyridin-4-yl-ethylcarbamoyl)-butyric acid], the half-maximal inhibitory concentration (IC50) is 1.4 µM in test [1]; 62 µM at MMP07; 4.1 µM in the test with MMP-13CD; more than 100 µM on MMP01; 1.9 µM in test [2].

With `CCC(C)CNC(=O)CCC(NS(=O)(=O)c1ccc2oc3ccccc3c2c1)C(=O)O` (stereo not shown) [Example F2, 2-(Dibenzofuran-2-sulfonylamino)-4-(2-methyl-butylcarbamoyl)-butyric acid], the IC50 in test [1] is 0.9 µM; at MMP07, 26.4 µM; in the test with MMP-13CD, 1.2 µM; on MMP01, more than 100 µM; in test [2], 1.8 µM.

(Values after patent publication US6294674A, “Dibenzofuran sulfonamide matrix metalloproteinase inhibitors” (priority 1999, dated 2001).)
